Earlier results on 65 compounds are cited in publication PMC11187573, “Identification of SARS-CoV-2 Mpro inhibitors through deep reinforcement learning for de novo drug design and computational chemistry approaches” (RSC Medicinal Chemistry, 2024).

The term IC50 denotes the concentration that inhibits the measured activity by half.

The data set relates to Mpro. The note with it: ML dataset, Origin COVID_Moonshot; ref COVID Moonshot; cited from earlier work.

As for `CCOC(=O)c1ncoc1CNC(=O)C(c1cccnc1)N(C(=O)c1cocn1)c1ccc(C(C)(C)C)cc1` (centres unmarked) [ALP-POS-88a7a97e-49], the IC50 is 5.88 µM.
On to `CC(C)(C)c1ccc(N(C(=O)c2c[nH]c(=O)s2)C(C(=O)NCCc2cccc(F)c2)c2cccnc2)cc1` (centres unmarked) [ALP-POS-305f6ec3-2], for which the IC50 was 29.1 µM.
Regarding `CC(C)(C)c1ccc(N(C(=O)c2c[nH]nn2)C(C(=O)NCCc2cccc(F)c2)c2cccnc2)cc1` (centres unmarked) [ALP-POS-305f6ec3-14], the IC50 is 1.17 µM.
Take `CC(C)(C)c1ccc(N(C(=O)c2c[nH]c(=O)cn2)C(C(=O)NCCc2cccc(F)c2)c2cccnc2)cc1` (centres unmarked) [ALP-POS-305f6ec3-33]: the IC50 is 77.1 µM.
`CC(C)(C)c1ccc(N(C(=O)c2cc(CO)[nH]n2)C(C(=O)NCCc2cccc(F)c2)c2cccnc2)cc1` (centres unmarked) [ALP-POS-305f6ec3-38]: the half-inhibitory concentration (IC50) was 18.8 µM.
As for `CC(C)(C)c1ccc(N(C(=O)c2cncs2)C(C(=O)NCCc2cccc(F)c2)c2cccnc2)cc1` (centres unmarked) [ALP-POS-305f6ec3-41], the IC50 is 24.2 µM.
With `Cn1ncc(C(=O)N(c2ccc(C(C)(C)C)cc2)C(C(=O)NCCc2cccc(F)c2)c2cccnc2)n1` (centres unmarked) [ALP-POS-305f6ec3-46], the IC50 is 17.6 µM.
As to `CC(C)(C)c1ccc(N(C(=O)c2cnco2)C(C(=O)NCCc2cccc(F)c2)c2cccnc2)cc1` (centres unmarked) [ALP-POS-305f6ec3-49], the half-maximal inhibitory concentration (IC50) is 4.78 µM.
`CC(C)(C)c1ccc(N(C(=O)c2c[nH]c(=O)[nH]2)C(C(=O)NCCc2cccc(F)c2)c2cccnc2)cc1` (centres unmarked) [ALP-POS-305f6ec3-52]: the IC50 was 15.9 µM.
Consider `Cn1cnc(C(=O)N(c2ccc(C(C)(C)C)cc2)C(C(=O)NCCc2cccc(F)c2)c2cccnc2)n1` (centres unmarked) [ALP-POS-305f6ec3-55], for which the IC50 is 74.2 µM.
Turning to `CC(C)(C)c1ccc(N(C(=O)c2cc(=O)[nH][nH]2)C(C(=O)NCCc2cccc(F)c2)c2cccnc2)cc1` (centres unmarked) [ALP-POS-305f6ec3-59], the concentration for half-maximal inhibition (IC50) was 39.7 µM.
Regarding `O=C(Nc1cncc2ccccc12)C1CCOc2c1ccc(Cl)c2Cl` (centres unmarked) [ALP-POS-869ac754-2], the IC50 was 3.31 µM.
For `O=C(Nn1nnc2ccccc21)C(Cc1cccc(Cl)c1)c1ccc(N2CCCCC2=O)cc1` (centres unmarked) [ALP-POS-a3de0cb1-13], the IC50 was 66.4 µM.
For `O=C1CCCCN1c1ccc(N(Cc2ccccc2)C(=O)Cc2n[nH]c3ccccc23)cc1` [ALP-POS-a3de0cb1-16], the IC50 is 39.4 µM.
With `O=C(NCCc1cccc(F)c1)C(c1cccnc1)N(C(=O)c1ccco1)c1ccc(C2CCCC2)cc1` (centres unmarked) [ALP-POS-b0bc6a46-5], the half-maximal inhibitory concentration (IC50) was 0.282 µM.
As for `O=C(NCCc1cccc(F)c1)C(c1cccnc1)N(Cc1ccccc1C1CCC1)C(=O)c1ccco1` (centres unmarked) [ALP-POS-b0bc6a46-10], the 50% inhibitory concentration (IC50) was 1.93 µM.
Consider `CC(C)(C)c1cnc(N(C(=O)c2ccco2)C(C(=O)NCCc2cccc(F)c2)c2cccnc2)s1` (centres unmarked) [ALP-POS-b0bc6a46-12], for which the half-maximal inhibitory concentration (IC50) is 3.94 µM.
On to `CSc1ccc(CN(C(=O)c2ccco2)C(C(=O)NCCc2cccc(F)c2)c2cccnc2)cc1C#N` (centres unmarked) [ALP-POS-b0bc6a46-20], for which the IC50 was 54.9 µM.
With `COc1ccc(N(C(=O)c2ccco2)C(C(=O)NCCc2cccc(F)c2)c2cccnc2)cc1` (centres unmarked) [ALP-POS-b0bc6a46-22], the IC50 was 30.5 µM.
Turning to `N#Cc1ccc(N(C(=O)c2ccco2)C(C(=O)NCCc2cccc(F)c2)c2cccnc2)cc1` (centres unmarked) [ALP-POS-b0bc6a46-24], the IC50 was 10.4 µM.
As for `O=C(NCCc1cccc(F)c1)C(c1cccnc1)N(C(=O)c1ccco1)C1CCN(c2ccccc2)CC1` (centres unmarked) [ALP-POS-b0bc6a46-28], the 50% inhibitory concentration (IC50) is 79.6 µM.
Consider `COc1ccc2nnn(CC(=O)N(Cc3ccccn3)c3ccc(C4CCNCC4)cc3)c2c1` [ALP-POS-c0c213c9-1], for which the 50% inhibitory concentration (IC50) was 35.5 µM.
For `CC(C)(C(N)=O)c1ccc(N(Cc2ccsc2)C(=O)Cn2nnc3ccccc32)cc1` [ALP-POS-c0c213c9-6], the IC50 is 3.17 µM.
Regarding `Cc1ccc(N(Cc2cscn2)C(=O)Cc2cncc3ccccc23)cc1` [ALP-POS-c3a96089-1], the IC50 was 10.9 µM.
Turning to `CNc1ccc(N(Cc2ccsc2)C(=O)Cn2nnc3ccccc32)cc1` [ALP-POS-c59291d4-4], the half-inhibitory concentration (IC50) was 11.5 µM.
For `O=C(Nc1cncc2ccccc12)C1CCOc2c(O)cc(Cl)cc21` (centres unmarked) [ALP-POS-ce760d3f-1], the IC50 was 0.579 µM.
In the case of `CN1C(=O)CCc2cc(N(C(=O)c3cocn3)C(C(=O)NCCc3cccc(F)c3)c3cccnc3)ccc21` (centres unmarked) [ALP-POS-ced8ea4d-1], the IC50 was 63.5 µM.
In the case of `CC(C)S(=O)(=O)c1ccc(N(C(=O)c2cocn2)C(C(=O)NCCc2cccc(F)c2)c2cccnc2)cc1` (centres unmarked) [ALP-POS-ced8ea4d-5], the 50% inhibitory concentration (IC50) was 66.1 µM.
Regarding `Cn1ncc2cc(N(C(=O)c3cocn3)C(C(=O)NCCc3cccc(F)c3)c3cccnc3)ccc21` (centres unmarked) [ALP-POS-ced8ea4d-8], the IC50 is 48 µM.
As to `CS(=O)(=O)c1ccc(N(C(=O)c2cocn2)C(C(=O)NCCc2cccc(F)c2)c2cccnc2)cc1` (centres unmarked) [ALP-POS-ced8ea4d-9], the IC50 is 75.9 µM.
`CS(=O)(=O)Cc1ccc(N(C(=O)c2cocn2)C(C(=O)NCCc2cccc(F)c2)c2cccnc2)cc1` (centres unmarked) [ALP-POS-ced8ea4d-11]: the half-maximal inhibitory concentration (IC50) is 27.7 µM.
As to `CC(C)Oc1ccc(N(C(=O)c2cocn2)C(C(=O)NCCc2cccc(F)c2)c2cccnc2)cc1` (centres unmarked) [ALP-POS-ced8ea4d-12], the concentration for half-maximal inhibition (IC50) is 0.609 µM.
As to `O=C(NCCc1cccc(F)c1)C(c1cccnc1)N(C(=O)c1cocn1)c1ccc(Cn2cccn2)cc1` (centres unmarked) [ALP-POS-ced8ea4d-16], the half-maximal inhibitory concentration (IC50) is 8.34 µM.
As for `COc1ccc(N(C(=O)c2cocn2)C(C(=O)NCCc2cccc(F)c2)c2cccnc2)cc1` (centres unmarked) [ALP-POS-ced8ea4d-19], the IC50 is 22.2 µM.
As for `Cn1ccc2cc(N(C(=O)c3cocn3)C(C(=O)NCCc3cccc(F)c3)c3cccnc3)ccc21` (centres unmarked) [ALP-POS-ced8ea4d-20], the IC50 was 23.8 µM.
Consider `O=C(NCCc1cccc(F)c1)C(c1cccnc1)N(C(=O)c1cocn1)c1ccc2ncsc2c1` (centres unmarked) [ALP-POS-ced8ea4d-24], for which the 50% inhibitory concentration (IC50) is 60.5 µM.
Turning to `Cc1ccc(N(C(=O)c2cocn2)C(C(=O)NCCc2cccc(F)c2)c2cccnc2)cc1` (centres unmarked) [ALP-POS-ced8ea4d-27], the IC50 was 50.2 µM.
As for `O=C(NCCc1cccc(F)c1)C(c1cccnc1)N(C(=O)c1cocn1)c1ccccc1` (centres unmarked) [ALP-POS-ced8ea4d-28], the IC50 is 89.2 µM.
On to `O=C(NCCc1cccc(F)c1)C(c1cccnc1)N(C(=O)c1cocn1)c1ccc(OC2CCOC2)cc1` (centres unmarked) [ALP-POS-ced8ea4d-32], for which the half-inhibitory concentration (IC50) is 6.32 µM.
On to `O=C(NCCc1cccc(F)c1)C(c1cccnc1)N(C(=O)c1cocn1)c1cn(Cc2ccccc2)cn1` (centres unmarked) [ALP-POS-ced8ea4d-35], for which the IC50 was 27.3 µM.
`O=C(NCCc1cccc(F)c1)C(c1cccnc1)N(C(=O)c1cocn1)c1ccc2scnc2c1` (centres unmarked) [ALP-POS-ced8ea4d-36]: the IC50 was 84 µM.
`O=C(NCCc1cccc(F)c1)C(c1cccnc1)N(C(=O)c1cocn1)c1ccc(C(F)(F)F)nc1` (centres unmarked) [ALP-POS-ced8ea4d-37]: the half-inhibitory concentration (IC50) is 36.4 µM.
In the case of `O=C(NCCc1cccc(F)c1)C(c1cccnc1)N(C(=O)c1cocn1)c1cnc(C2CCC2)nc1` (centres unmarked) [ALP-POS-ced8ea4d-63], the IC50 is 69.1 µM.
Consider `CCOc1ccc(N(C(=O)c2cocn2)C(C(=O)NCCc2cccc(F)c2)c2cccnc2)cc1` (centres unmarked) [ALP-POS-ced8ea4d-67], for which the IC50 was 15.5 µM.
For `Cc1ccncc1C(C(=O)NCCc1cccc(F)c1)N(C(=O)c1cocn1)c1ccc(C(C)(C)C)cc1` (centres unmarked) [ALP-POS-d0876c20-1], the IC50 is 0.653 µM.
Turning to `CC(C)(C)c1ccc(N(C(=O)c2cocn2)C(C(=O)NCCc2cccc(F)c2)c2ccnnc2)cc1` (centres unmarked) [ALP-POS-d0876c20-5], the IC50 was 2.05 µM.
Turning to `COc1nccnc1C(C(=O)NCCc1cccc(F)c1)N(C(=O)c1cocn1)c1ccc(C(C)(C)C)cc1` (centres unmarked) [ALP-POS-d0876c20-15], the IC50 was 94.9 µM.
On to `CC(C)(C)c1ccc(N(C(=O)c2cocn2)C(C(=O)NCCc2cccc(F)c2)c2cncnc2)cc1` (centres unmarked) [ALP-POS-d0876c20-17], for which the IC50 was 2.92 µM.
As to `COc1ncncc1C(C(=O)NCCc1cccc(F)c1)N(C(=O)c1cocn1)c1ccc(C(C)(C)C)cc1` (centres unmarked) [ALP-POS-d0876c20-19], the IC50 was 8.43 µM.
For `CC(C)(C)c1ccc(N(C(=O)c2cocn2)C(C(=O)NCCc2cccc(F)c2)c2cnccn2)cc1` (centres unmarked) [ALP-POS-d0876c20-21], the IC50 is 1.21 µM.
Consider `CN(C)c1ccc(N(Cc2ccsc2)C(=O)Cn2nnc3ccccc32)cc1` [ALP-POS-d2866bdf-1], for which the IC50 is 3.58 µM.
With `O=C(NCCc1cccc(F)c1)C(c1cccnc1)N(C(=O)c1cnc[nH]1)c1ccc(OC2CCOC2)cc1` (centres unmarked) [ALP-POS-e980f4ea-32], the IC50 is 25.8 µM.
`O=C(COc1cccc(Cl)c1)Nc1cncc2ccccc12` [ALP-POS-f13221e1-2]: the IC50 was 8.59 µM.
In the case of `O=C(CC1(C(=O)Nc2cncc3ccccc23)CCOc2ccc(Cl)cc21)N1CCN(CC(F)(F)CO)CC1` (centres unmarked) [ALP-UNI-8e43a71e-10], the IC50 was 7.28 µM.
As to `O=C(Nc1cncc2ccccc12)C1CCNc2cc(Cl)c(Cl)cc21` (centres unmarked) [ALP-UNI-3735e77e-4], the IC50 was 0.154 µM.
As to `O=C(Nc1cncc2ccccc12)C1CCN(Cc2cnc[nH]2)c2ccc(Cl)cc21` (centres unmarked) [ALP-UNI-b33a865d-1], the IC50 was 1.12 µM.
For the compound `Cn1nncc1CC(=O)NC(c1ccccc1)c1nc2ccccc2n1C` (centres unmarked) [BAR-COM-4e090d3a-6], the IC50 is 35.7 µM.
In the case of `O=C(c1cc(=O)[nH]c2ccccc12)N1CCN(Cc2ccccc2)CC1` [BEN-DND-7e92b6ca-10], the concentration for half-maximal inhibition (IC50) was 13.8 µM.
As for `COc1cccc(N2CCN(C(=O)c3cc(=O)[nH]c4ccccc34)CC2)c1` [BEN-DND-7e92b6ca-12], the IC50 was 13.6 µM.
With `COc1ccccc1N1CCN(C(=O)c2cc(=O)[nH]c3ccccc23)CC1` [BEN-DND-7e92b6ca-13], the IC50 is 32.8 µM.
As for `O=C(c1cc(=O)[nH]c2ccccc12)N1CCN(c2ccc(F)cc2)CC1` [BEN-DND-7e92b6ca-14], the half-inhibitory concentration (IC50) is 34.6 µM.
Take `O=C(Nc1cncc2ccccc12)N1CCOc2ccc(Cl)cc21` [BEN-DND-f2e727cd-1]: the IC50 was 11.4 µM.
With `O=C(NCCc1cccc(F)c1)C(c1cccnc1)N(C(=O)c1c[nH]cn1)c1ccc(OC(F)F)cc1` (centres unmarked) [BRU-THA-92256091-16], the IC50 was 22.1 µM.
For `COc1ccc(N(C(=O)c2c[nH]cn2)C(C(=O)NCCc2cccc(F)c2)c2cccnc2)cc1` (centres unmarked) [BRU-THA-92256091-19], the concentration for half-maximal inhibition (IC50) is 93.7 µM.
On to `CS(=O)(=O)Cc1ccc(N(C(=O)c2c[nH]cn2)C(C(=O)NCCc2cccc(F)c2)c2cccnc2)cc1` (centres unmarked) [BRU-THA-92256091-20], for which the half-inhibitory concentration (IC50) was 41.1 µM.
